This is an account of results in US7122518B2, “Method for preventing or reducing collateral phototoxic damage to neighboring tissues during photodynamic therapy of a target tissue” (New York University, priority 2002, dated 2006).

For data set [1], the system named is ARPE cells. Nature of the data set: Competitive quenching by hypericin versus DTHe in ARPE cells (Hemacolor viability). To be noted: for cell viability: 1.73 J/cm^2, Hemacolor after 24 hrs (FIG. 7A). On the procedure: The cells were treated with the added dianthraquinone compounds for 3 hrs. and with added verteporfin for the last two hrs. The cells were then exposed to 1.73 J/cm^2 of light irradiation at >650 nm and cell viability monitored after 24 hrs. in culture.
(§1) For the Hemacolor assay the cells were fixed with methanol, stained with Hemacolor reagents (Merck, Darmstadt, Germany), the dye eluted and quantified in an ELISA reader at 650 nm. PDT efficacy was expressed as percentage of viable cells in treated wells relative to untreated controls, calculated as (OD650, treated/OD650, untreated)×100.
ARPE or EH endothelial hybridoma cells were seeded at 5×10^4 cells/well in 96 well flat bottom microplates. The cells were allowed to adhere overnight, after which time DTHe or hypericin were added to ARPE cells (FIG. 7A) or to endothelial hybridoma cells (FIG. 7B) at concentrations of 10 or 20 μg/ml and the cells incubated at 37° C. in complete darkness. After one hour incubation with hypericin, verteporfin at concentrations of 0.1, 0.25 and 0.5 μg/ml was added to the cultures, which were then incubated at 37° C. for two additional hours. The supernatants were removed, the cells washed with PBS and the cultures exposed to light irradiation at a dose of 1.73 J/cm^2 at 689 nm. The cultures were then incubated at 37° C. for an additional 24 hrs and cell viability was then determined via the hemacolor assay.

The subject of data set [2] is ARPE-19 cells. Nature of the data set: Protection of ARPE cells from verteporfin-induced phototoxicity (MTT viability). To be noted: for viability at 20 µM: Homo sapiens, ARPE-19, light or radiation study. On the procedure: ARPE or EH cells were plated in 96 well flat bottom microplates 2×10^4 cells/well. The cells were allowed to attach to the plate surface and hypericin was added to the cultures in complete darkness (ambient light kept below <0.03 mW/cm^2 to prevent hypericin-mediated phototoxicity) for time intervals ranging from 3–6 hrs. Verteporfin was then added and was present for the last two hours of the incubation period. At the end of incubation period, the growth medium containing hypericin and verteporfin was removed and replaced with phosphate buffered saline (PBS) and then photosensitized with red light using a fiber-optic non-coherent light delivery system (SeNet Ltd, Israel) in combination with K700 broadband interference filter with central wavelengths at 700 nm and half-height bandwidth of ±40 nm (Rolyn Optics, Covina, Calif.) to selectively excite verteporfin but not hypericin (excitable at 546 and 590 nm). […] The fluence rate (mW/cm^2) was measured with a Model IL 1400A radiometer/photometer (International Light Inc., Newburyport, Mass.).
Two methods have been used to monitor cell viability: the MTT assay which measures reduction of MTT to formasan by mitochondria of viable cells and by the Hemacolor assay, a calorimetric microtiter assay that quantifies the amount of dye that binds to viable adherent cells (Keisari, 1992). […] MTT was added to the cells following light irradiation and the plates were incubated for three hours and then analyzed in an ELISA reader at 560 nm. […]
In order to examine whether the red/ox properties of hypericin in the dark can impact on the phototoxic properties of verteporfin (VP), retinal pigmented epithelial cells (ARPE-19) in monolayer cultures were loaded with hypericin by exposure to 5, 10 and 20 μM of this compound for three and six hrs. […] Following irradiation, drug-free fresh medium was introduced, the cells incubated at 37° C. in a 5% CO2 incubator for additional 24 hrs and cell viability then monitored using the MTT assay.

For data set [3], the system named is EH endothelial cells. Briefly: Protection of EH endothelial cells from verteporfin-induced phototoxicity (viability). To be noted: for viability at 20 µM: Homo sapiens, Endothelial cell, light or radiation study. On the procedure: ARPE or EH cells were plated in 96 well flat bottom microplates 2×10^4 cells/well. The cells were allowed to attach to the plate surface and hypericin was added to the cultures in complete darkness (ambient light kept below <0.03 mW/cm^2 to prevent hypericin-mediated phototoxicity) for time intervals ranging from 3–6 hrs. Verteporfin was then added and was present for the last two hours of the incubation period. At the end of incubation period, the growth medium containing hypericin and verteporfin was removed and replaced with phosphate buffered saline (PBS) and then photosensitized with red light using a fiber-optic non-coherent light delivery system (SeNet Ltd, Israel) in combination with K700 broadband interference filter with central wavelengths at 700 nm and half-height bandwidth of ±40 nm (Rolyn Optics, Covina, Calif.) to selectively excite verteporfin but not hypericin (excitable at 546 and 590 nm). The cultures were then returned to standard growth medium, cultured for 24 hrs in a 37° C., 5% CO2 and cell viability then assayed by the MTT or Hemacolor assays. The fluence rate (mW/cm^2) was measured with a Model IL 1400A radiometer/photometer (International Light Inc., Newburyport, Mass.).
Two methods have been used to monitor cell viability: the MTT assay which measures reduction of MTT to formasan by mitochondria of viable cells and by the Hemacolor assay, a calorimetric microtiter assay that quantifies the amount of dye that binds to viable adherent cells (Keisari, 1992). The cells were plated in flat-bottomed 96 well plates in 200 μl medium containing the photosensitizer. MTT was added to the cells following light irradiation and the plates were incubated for three hours and then analyzed in an ELISA reader at 560 nm. Corrections were made for non-specific absorption of MTT subtracting background values generated in cell free blank wells containing medium and HY at each dose level and MTT.
as §1
EH cells were used for this purpose.

The nature of data set [4]: Hypericin distribution among the layers of the retina after i.v. administration. The protocol:
Rats were sacrificed at 15 min, 2 hrs, 6 hrs and 8 hrs after i.v. administration of hypericin, 2 mg/kg. The eyes were enucleated and frozen initially at −80° C. and subsequently in liquid nitrogen and several cryostat sections (5-μm width) sliced from each sample. To prevent hypericin extraction from the retinal tissues during staining the histological tissue distribution of hypericin among the different layers of the retina was initially examined under an Olympus phase contrast and fluorescence microscope, and the data photographed with a computer-linked digital camera (Multipixel Spectral Imaging System, Applied Spectral Imaging Inc., Israel. Hypericin was excited at 477 nm and its fluorescence recorded by documenting emission intensity at 602 nm. The photographed locations were marked and the sections then stained with Hematoxylin-eosin (H&E) for confirmation of retinal layer identity and compared to the corresponding fluorescence and light microscopy images.
Hypericin at a dose of 2 mg/kg was administered to the tail vein. At 15 minutes, 2, 4, 6 and 8 hrs the rats were anesthesized, the eyes enucleated and frozen sections prepared. The sections were then analyzed by Multipixel Spectral Imaging.

The nature of data set [5]: Biodistribution of hypericin in tissues of tumor-bearing mice (fluorescence). The data set is classed as in vivo. To be noted: BALB/c mice bearing breast adenocarcinoma tumors, preliminary (FIG. 5). The protocol:
The present inventor aimed to overcome this obstacle by using pharmacokinetic considerations. Hypericin is a lipophilic agent with an alpha half life of approximately 1–2 hours in the circulation. […] It is therefore possible to generate conditions in which hypericin has cleared from the circulation and concentrated in the tissues where it can be useful in protecting from collateral photodynamic damage.

The conditions of data set [6]: cited from earlier work.
For data set [7] the following is noted: in vivo, iv; cited from earlier work.
Where [8] appears, read: verteporfin 0.25 μg/ml plus quencher 10 μg/ml.
Setting [9] is: verteporfin 0.25 μg/ml plus quencher 20 μg/ml.

The cell viability is a read-out of living cells in per cent, often relative to untreated cells.

“Also recorded” adds a separate entry of the source. Read-outs that look alike come from different tables or passages of the source.

On to `Cc1ccc2c(=O)c3c(O)cc(O)c4c5c(O)cc(O)c6c(=O)c7ccc(C)cc7c(c65)c(c2c1)c34` [DTHe, dimethyl tetrahydroxy helianthrone], for which, in data set [1] (ARPE cells, 10 and 20 μg/ml), the “competitive quenching of verteporfin-mediated phototoxicity relative to hypericin” value is given as “much less effective”. The results for the cell viability in data set [1] (setting [8]) and in data set [1] (setting [9]) were 7.5% and 6%, respectively.

Regarding `Cc1cc(O)c2c(=O)c3c(O)cc(O)c4c5c(O)cc(O)c6c(=O)c7c(O)cc(C)c8c1c2c(c34)c(c78)c65` [hypericin], the viability at 20 µM in data set [2] (read-out: percent cell viability, verteporfin 0.25 μg/ml plus hypericin 20 μM, 0.75 J/cm^2 >650 nm (FIG. 2A)) is 60%; in data set [2] (read-out: percent cell viability, verteporfin 0.5 μg/ml plus hypericin 20 μM, 0.75 J/cm^2 >650 nm (FIG. 2A)) it was 25%; in data set [3] (read-out: EH cell viability, verteporfin 0.1 μg/ml plus hypericin 20 μM, 0.96 J/cm^2 (FIG. 3A)), 73%; in data set [3] (read-out: EH cell viability, verteporfin 0.25 μg/ml plus hypericin 20 μM, 0.96 J/cm^2 (FIG. 3A)), 81%; in data set [3] (read-out: EH cell viability, verteporfin 0.5 μg/ml plus hypericin 20 μM, 0.96 J/cm^2 (FIG. 3A)), 49%. Moreover, the cell viability preserved result in data set [2] (verteporfin 2 μg/ml, hypericin loaded before photosensitization, RPE or endothelial cells, cell line not specified) was “up to 46.8%”. In data set [3] (higher doses of light irradiation, 1.73 J/cm^2 (FIG. 3B)), the “EH cell protection from verteporfin-induced phototoxicity” value is recorded as “also maintained at higher doses of light irradiation, yet the absolute levels of protection declined”. Besides, the cell viability in data set [1] (setting [8]) was 35%; in data set [1] (setting [9]), 32%. The “retinal distribution of hypericin fluorescence” value was “confined to the choroidal blood vessels; also recorded: confined mainly to the vasculature” in data set [4] (15 minutes after 2 mg/kg i.v., rats (FIG. 6A)); “spreads to the entire retina; also recorded: extravasated to the surrounding tissue was less evident within the vasculature and spread through the choroid” in data set [4] (2 hrs after 2 mg/kg i.v., rats (FIG. 6B)); “present only in the retina and not in the blood vessels; also recorded: spread to the entire retina” in data set [4] (6 hrs after 2 mg/kg i.v., rats (FIG. 6C)). Further, the “confinement to the choroidal vasculature” value in data set [4] (after i.v. administration to rats (discussion)) is given as “mainly confined to the choroidal vasculature for up to one hour”. For the same compound, the “bioavailability to the retina” value in data set [4] (hypericin 2 mg/kg i.v. tail vein, rats) was “bioavailable to the retina”. Further, the “clearance from choroidal vessels and tissue accumulation” value in data set [4] (rat, in vivo, iv) was “beyond 2 hrs was cleared from the choroidal vessels and accumulated in the extravascular choroid and RPE”. Also, the tissue biodistribution result in data set [5] was “sequester in various tissues for many hours”. In addition, the “alpha half-life in the circulation” value in data set [6] (circulation) is 1 to 2 h. For the same compound, the elimination half-life in data set [6] (human, in vivo) was roughly 48 h. In data set [6] (in vivo), the “gamma elimination half life from tissues” value was “approximately 48 hrs”.

With verteporfin, the “time remaining in the intravascular compartment” value in data set [7] is 30 min.
